# Assays:
# Format in all cases: in vivo
# [1] = system: nightshade (eastern black nightshade, Solanum ptycanthum); assay: Test C preemergence, plant response rating
# [2] = system: Canada thistle (Cirsium arvense); assay: Test C postemergence, plant response rating; settings: for Canada Thistle plant response rating: scale 0 to 100 (0 no effect, 100 complete control)
# Procedure, shortened: (§1)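 After sowing in loam–sand blend or silt loam, pots were sprayed preemergence; separately grown 1- to 4-leaf plants were sprayed postemergence. Following 13 to 15 d under greenhouse conditions, injury was rated visually on a 0 to 100 scale.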
# [3] = system: buckwheat, wild (wild buckwheat, Polygonum convolvulus); assay: Test C postemergence, plant response rating; settings: for Buckwheat, Wild plant response rating: scale 0 to 100 (0 no effect, 100 complete control)
# Procedure, shortened: as §1
# [4] = system: field poppy (Papaver rhoeas); assay: Test C postemergence, plant response rating; settings: for Field Poppy plant response rating: scale 0 to 100 (0 no effect, 100 complete control)
# Procedure, shortened: as §1
# [5] = system: field violet (Viola arvensis); assay: Test C postemergence, plant response rating; settings: for Field Violet plant response rating: scale 0 to 100 (0 no effect, 100 complete control)
# Procedure, shortened: as §1
# [6] = system: geranium, cutleaf (cutleaf geranium, Geranium dissectum); assay: Test C postemergence, plant response rating; settings: for Geranium, Cutleaf plant response rating: scale 0 to 100 (0 no effect, 100 complete control)
# Procedure, shortened: as §1
# [7] = system: johnsongrass (Sorghum halepense); assay: Test C postemergence, plant response rating; settings: for Johnsongrass plant response rating: scale 0 to 100 (0 no effect, 100 complete control)
# Procedure, shortened: as §1
# [8] = system: nightshade (eastern black nightshade, Solanum ptycanthum); assay: Test C postemergence, plant response rating; settings: for Nightshade plant response rating: scale 0 to 100 (0 no effect, 100 complete control)
# Procedure, shortened: as §1
# [9] = system: pigweed, palmer (palmer pigweed, Amaranthus palmeri); assay: Test C postemergence, plant response rating; settings: for Pigweed, Palmer plant response rating: scale 0 to 100 (0 no effect, 100 complete control)
# Procedure, shortened: as §1
# [10] = system: speedwell (bird's-eye speedwell, Veronica persica); assay: Test C postemergence, plant response rating; settings: for Speedwell plant response rating: scale 0 to 100 (0 no effect, 100 complete control)
# Procedure, shortened: as §1
# [11] = system: surinam grass (Brachiaria decumbens); assay: Test C postemergence, plant response rating; settings: for Surinam Grass plant response rating: 125 g ai/ha, scale 0 to 100 (0 no effect, 100 complete control)
# Procedure, shortened: as §1
# [12] = system: wild mustard (Sinapis arvensis); assay: Test C postemergence, plant response rating; settings: for Mustard, Wild plant response rating: scale 0 to 100 (0 no effect, 100 complete control)
# Procedure, shortened: as §1
# [13] = system: wild poinsettia (Euphorbia heterophylla); assay: Test C postemergence, plant response rating; settings: for Poinsettia, Wild plant response rating: scale 0 to 100 (0 no effect, 100 complete control)
# Procedure, shortened: as §1
# [14] = system: windgrass (Apera spica-venti); assay: Test C postemergence, plant response rating; settings: for Windgrass plant response rating: 125 g ai/ha, scale 0 to 100 (0 no effect, 100 complete control)
# Procedure, shortened: as §1
compound,measurement,setting,value
FC(F)(F)CCCCc1c(Br)cccc1Oc1ncc(Cl)cn1 [Compound 138],"Plant response rating, Nightshade","[1]; 31 g ai/ha, scale 0 to 100",50
same,"Plant response rating, Nightshade","[1]; 62 g ai/ha, scale 0 to 100",80
same,"Plant response rating, Nightshade","[1]; 125 g ai/ha, scale of 0 to 100",80
same,"Plant response rating, Canada Thistle","[2]; 16 g ai/ha, scale of 0 to 100",80
same,"Plant response rating, Canada Thistle","[2]; 31 g ai/ha, scale 0 to 100",80
same,Canada Thistle plant response rating,[2]; 62 g ai/ha,90
same,Canada Thistle plant response rating,[2]; 125 g ai/ha,95
same,"Plant response rating, Buckwheat, Wild","[3]; 16 g ai/ha, scale of 0 to 100",70
same,"Plant response rating, Buckwheat, Wild","[3]; 31 g ai/ha, scale 0 to 100",80
same,"Buckwheat, Wild plant response rating",[3]; 62 g ai/ha,100
same,"Buckwheat, Wild plant response rating",[3]; 125 g ai/ha,100
same,"Plant response rating, Field Poppy","[4]; 16 g ai/ha, scale of 0 to 100",100
same,"Plant response rating, Field Poppy","[4]; 31 g ai/ha, scale 0 to 100",100
same,Field Poppy plant response rating,[4]; 62 g ai/ha,100
same,Field Poppy plant response rating,[4]; 125 g ai/ha,100
same,"Plant response rating, Field Violet","[5]; 16 g ai/ha, scale of 0 to 100",90
same,"Plant response rating, Field Violet","[5]; 31 g ai/ha, scale 0 to 100",95
same,Field Violet plant response rating,[5]; 62 g ai/ha,100
same,Field Violet plant response rating,[5]; 125 g ai/ha,100
same,"Plant response rating, Geranium, Cutleaf","[6]; 16 g ai/ha, scale of 0 to 100",30
same,"Plant response rating, Geranium, Cutleaf","[6]; 31 g ai/ha, scale 0 to 100",35
same,"Geranium, Cutleaf plant response rating",[6]; 62 g ai/ha,55
same,"Geranium, Cutleaf plant response rating",[6]; 125 g ai/ha,60
same,"Plant response rating, Johnsongrass","[7]; 16 g ai/ha, scale of 0 to 100",10
same,"Plant response rating, Johnsongrass","[7]; 31 g ai/ha, scale 0 to 100",25
same,Johnsongrass plant response rating,[7]; 62 g ai/ha,80
same,Johnsongrass plant response rating,[7]; 125 g ai/ha,90
same,"Plant response rating, Nightshade","[8]; 16 g ai/ha, scale of 0 to 100",75
same,"Plant response rating, Nightshade","[8]; 31 g ai/ha, scale 0 to 100",80
same,Nightshade plant response rating,[8]; 62 g ai/ha,100
same,Nightshade plant response rating,[8]; 125 g ai/ha,98
same,"Plant response rating, Pigweed, Palmer","[9]; 16 g ai/ha, scale of 0 to 100",75
same,"Plant response rating, Pigweed, Palmer","[9]; 31 g ai/ha, scale 0 to 100",80
same,"Pigweed, Palmer plant response rating",[9]; 62 g ai/ha,90
same,"Pigweed, Palmer plant response rating",[9]; 125 g ai/ha,98
same,"Plant response rating, Speedwell","[10]; 16 g ai/ha, scale of 0 to 100",95
same,"Plant response rating, Speedwell","[10]; 31 g ai/ha, scale 0 to 100",100
same,Speedwell plant response rating,[10]; 62 g ai/ha,100
same,Speedwell plant response rating,[10]; 125 g ai/ha,100
same,"Plant response rating, Surinam Grass","[11]; 16 g ai/ha, scale of 0 to 100",20
same,"Plant response rating, Surinam Grass","[11]; 31 g ai/ha, scale 0 to 100",20
same,Surinam Grass plant response rating,[11],35
same,"Plant response rating, Mustard, Wild","[12]; 16 g ai/ha, scale of 0 to 100",100
same,"Plant response rating, Mustard, Wild","[12]; 31 g ai/ha, scale 0 to 100",100
same,"Mustard, Wild plant response rating",[12]; 62 g ai/ha,100
same,"Mustard, Wild plant response rating",[12]; 125 g ai/ha,100
same,"Plant response rating, Poinsettia, Wild","[13]; 16 g ai/ha, scale of 0 to 100",30
same,"Plant response rating, Poinsettia, Wild","[13]; 31 g ai/ha, scale 0 to 100",60
same,"Poinsettia, Wild plant response rating",[13]; 62 g ai/ha,75
same,"Poinsettia, Wild plant response rating",[13]; 125 g ai/ha,90
same,"Plant response rating, Windgrass","[14]; 16 g ai/ha, scale of 0 to 100",0
same,"Plant response rating, Windgrass","[14]; 31 g ai/ha, scale 0 to 100",15
same,Windgrass plant response rating,[14],50
N#CC(CCCC(F)(F)F)c1ccccc1Oc1ncc(Cl)cn1 (stereo not shown) [Compound 144],"Plant response rating, Nightshade","[1]; 31 g ai/ha, scale 0 to 100",65
same,"Plant response rating, Nightshade","[1]; 62 g ai/ha, scale 0 to 100",90
same,"Plant response rating, Nightshade","[1]; 125 g ai/ha, scale of 0 to 100",100
same,"Plant response rating, Canada Thistle","[2]; 16 g ai/ha, scale of 0 to 100",90
same,"Plant response rating, Canada Thistle","[2]; 31 g ai/ha, scale 0 to 100",60
same,Canada Thistle plant response rating,[2]; 62 g ai/ha,90
same,Canada Thistle plant response rating,[2]; 125 g ai/ha,90
same,"Plant response rating, Buckwheat, Wild","[3]; 16 g ai/ha, scale of 0 to 100",70
same,"Plant response rating, Buckwheat, Wild","[3]; 31 g ai/ha, scale 0 to 100",55
same,"Buckwheat, Wild plant response rating",[3]; 62 g ai/ha,80
same,"Buckwheat, Wild plant response rating",[3]; 125 g ai/ha,95
same,"Plant response rating, Field Poppy","[4]; 16 g ai/ha, scale of 0 to 100",60
same,"Plant response rating, Field Poppy","[4]; 31 g ai/ha, scale 0 to 100",80
same,Field Poppy plant response rating,[4]; 62 g ai/ha,90
same,Field Poppy plant response rating,[4]; 125 g ai/ha,100
same,"Plant response rating, Field Violet","[5]; 16 g ai/ha, scale of 0 to 100",60
same,"Plant response rating, Field Violet","[5]; 31 g ai/ha, scale 0 to 100",65
same,Field Violet plant response rating,[5]; 62 g ai/ha,80
same,Field Violet plant response rating,[5]; 125 g ai/ha,90
same,"Plant response rating, Geranium, Cutleaf","[6]; 16 g ai/ha, scale of 0 to 100",15
same,"Plant response rating, Geranium, Cutleaf","[6]; 31 g ai/ha, scale 0 to 100",20
same,"Geranium, Cutleaf plant response rating",[6]; 62 g ai/ha,35
same,"Geranium, Cutleaf plant response rating",[6]; 125 g ai/ha,40
same,"Plant response rating, Johnsongrass","[7]; 16 g ai/ha, scale of 0 to 100",5
same,"Plant response rating, Johnsongrass","[7]; 31 g ai/ha, scale 0 to 100",5
same,Johnsongrass plant response rating,[7]; 62 g ai/ha,5
same,Johnsongrass plant response rating,[7]; 125 g ai/ha,5
same,"Plant response rating, Nightshade","[8]; 16 g ai/ha, scale of 0 to 100",65
same,"Plant response rating, Nightshade","[8]; 31 g ai/ha, scale 0 to 100",75
same,Nightshade plant response rating,[8]; 62 g ai/ha,75
same,Nightshade plant response rating,[8]; 125 g ai/ha,90
same,"Plant response rating, Pigweed, Palmer","[9]; 16 g ai/ha, scale of 0 to 100",25
same,"Plant response rating, Pigweed, Palmer","[9]; 31 g ai/ha, scale 0 to 100",35
same,"Pigweed, Palmer plant response rating",[9]; 62 g ai/ha,40
same,"Pigweed, Palmer plant response rating",[9]; 125 g ai/ha,80
same,"Plant response rating, Speedwell","[10]; 16 g ai/ha, scale of 0 to 100",60
same,"Plant response rating, Speedwell","[10]; 31 g ai/ha, scale 0 to 100",70
same,Speedwell plant response rating,[10]; 62 g ai/ha,95
same,Speedwell plant response rating,[10]; 125 g ai/ha,95
same,"Plant response rating, Surinam Grass","[11]; 16 g ai/ha, scale of 0 to 100",10
same,"Plant response rating, Surinam Grass","[11]; 31 g ai/ha, scale 0 to 100",20
same,Surinam Grass plant response rating,[11],25
same,"Plant response rating, Mustard, Wild","[12]; 16 g ai/ha, scale of 0 to 100",70
same,"Plant response rating, Mustard, Wild","[12]; 31 g ai/ha, scale 0 to 100",70
same,"Mustard, Wild plant response rating",[12]; 62 g ai/ha,80
same,"Mustard, Wild plant response rating",[12]; 125 g ai/ha,95
same,"Plant response rating, Poinsettia, Wild","[13]; 16 g ai/ha, scale of 0 to 100",30
same,"Plant response rating, Poinsettia, Wild","[13]; 31 g ai/ha, scale 0 to 100",35
same,"Poinsettia, Wild plant response rating",[13]; 62 g ai/ha,50
same,"Poinsettia, Wild plant response rating",[13]; 125 g ai/ha,60
same,"Plant response rating, Windgrass","[14]; 16 g ai/ha, scale of 0 to 100",10
same,"Plant response rating, Windgrass","[14]; 31 g ai/ha, scale 0 to 100",10
same,Windgrass plant response rating,[14],30

# — US11053204B2, “Pyrimidinyloxy benzene derivatives as herbicides” (FMC Corporation, priority 2015, dated 2021)
